Experimental data: patent publication US10912827B2 (priority 2016, dated 2021)
Like-named read-outs stand apart in the source and are kept apart here.

What was measured:
[1] = tested on: HBVtg mice; conditions: mouse, in vivo
[2] = tested on: HBV-transgenic mice (Strain HBV1.3.32); type: in vivo, mouse
[3] = tested on: HBV-transgenic mice (Strain HBV1.3.32); conditions: mouse, in vivo
[4] = tested on: chronic Hepatitis B virus (HBV)-infection; conditions: cited from earlier work
[5] = middle and high antigenemic HBVtg mice, day 34

| Compound | liver damage / increase in ALT [1] | titers of anti-HBc antibodies, c-di-AMP compared to CpG/PCEP regimen ([2]; day 34, p<0.05) | impact on serum HBeAg levels ([2]; high antigenemic HBVtg mice, HBsAg+HBcAg prime twice, MVA-S/core boost day 28, day 34) | HBV replication, detected indirectly by HBeAg levels ([2]; i.m. route) | HBsAg to anti-HBs seroconversion [2, 5] | anti-HBc responses [2, 5] | HBV replication, detected indirectly by HBeAg levels ([2]; s.c./i.p. routes) | adjuvant efficacy for therapeutic protein prime-MVA boost vaccination [3] | difference in magnitude of HBV-specific CD8+ T cell responses between c-di-AMP and CpG/PCEP regimens [3] | efficacy as adjuvant for therapeutic protein prime-MVA boost vaccination [3] | efficacy in i.m. versus s.c./i.p. application routes [3] | patients in whom therapy is curative [4] |
| --- | --- | --- | --- | --- | --- | --- | --- | --- | --- | --- | --- | --- |
| Nc1ncnc2c1ncn2[C@@H]1O[C@@H]2COP(=O)(O)O[C@H]3[C@@H](O)[C@H](n4cnc5c(N)ncnc54)O[C@@H]3COP(=O)(O)O[C@H]2[C@H]1O [c-di-AMP, bis-(3′,5′)-cyclic dimeric adenosine monophosphate] | mild T-cell-induced liver damage | significantly higher titers | Neither c-di-AMP nor CpG/PCEP immunization protocol had an impact | lower HBV replication | HBsAg to anti-HBs seroconversion in all examined HBVtg mice | significant anti-HBc responses | lower HBV replication | potent adjuvant | no statistically significant difference | very potent adjuvant | equally effective | – |
| Interferon α | – | – | – | – | – | – | – | – | – | – | – | 15-20% |
